Values quoted from earlier work in patent US12637520B2, “Conjugation chemistry for catalytic antibody 38C2” (UNIVERSITY OF FLORIDA RESEARCH FOUNDATION, INCORPORATED, priority 2019, dated 2026).

Target: open conformation of integrin α4β1 (Homo sapiens, UniProt P05556+P13612)
Details: cited from earlier work

open conformation of integrin α4β1, sequence (P13612 34-1032): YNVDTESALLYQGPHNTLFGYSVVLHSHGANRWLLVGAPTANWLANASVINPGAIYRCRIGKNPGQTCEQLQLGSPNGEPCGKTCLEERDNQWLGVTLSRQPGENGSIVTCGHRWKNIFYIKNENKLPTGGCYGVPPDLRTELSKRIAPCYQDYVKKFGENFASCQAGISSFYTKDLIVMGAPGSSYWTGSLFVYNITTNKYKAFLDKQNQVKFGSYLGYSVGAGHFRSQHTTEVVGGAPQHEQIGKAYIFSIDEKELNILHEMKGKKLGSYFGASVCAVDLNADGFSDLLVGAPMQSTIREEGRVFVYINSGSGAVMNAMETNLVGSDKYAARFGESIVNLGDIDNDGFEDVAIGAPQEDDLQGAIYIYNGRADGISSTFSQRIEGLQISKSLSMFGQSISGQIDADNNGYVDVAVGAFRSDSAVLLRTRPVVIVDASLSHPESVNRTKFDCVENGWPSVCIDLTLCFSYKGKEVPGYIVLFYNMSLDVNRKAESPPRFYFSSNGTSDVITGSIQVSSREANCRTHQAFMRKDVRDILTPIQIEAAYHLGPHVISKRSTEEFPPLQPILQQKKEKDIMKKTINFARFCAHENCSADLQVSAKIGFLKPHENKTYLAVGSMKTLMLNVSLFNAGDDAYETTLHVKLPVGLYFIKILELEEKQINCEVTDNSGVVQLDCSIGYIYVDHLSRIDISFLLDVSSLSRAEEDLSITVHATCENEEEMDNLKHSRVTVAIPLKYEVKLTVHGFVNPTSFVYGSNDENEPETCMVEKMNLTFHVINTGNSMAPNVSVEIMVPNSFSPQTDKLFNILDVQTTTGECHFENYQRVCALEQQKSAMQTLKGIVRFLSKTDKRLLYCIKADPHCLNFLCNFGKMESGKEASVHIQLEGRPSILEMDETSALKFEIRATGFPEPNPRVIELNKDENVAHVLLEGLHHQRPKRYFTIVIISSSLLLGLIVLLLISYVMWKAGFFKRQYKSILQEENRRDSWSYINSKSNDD
open conformation of integrin α4β1, sequence (P05556 21-798): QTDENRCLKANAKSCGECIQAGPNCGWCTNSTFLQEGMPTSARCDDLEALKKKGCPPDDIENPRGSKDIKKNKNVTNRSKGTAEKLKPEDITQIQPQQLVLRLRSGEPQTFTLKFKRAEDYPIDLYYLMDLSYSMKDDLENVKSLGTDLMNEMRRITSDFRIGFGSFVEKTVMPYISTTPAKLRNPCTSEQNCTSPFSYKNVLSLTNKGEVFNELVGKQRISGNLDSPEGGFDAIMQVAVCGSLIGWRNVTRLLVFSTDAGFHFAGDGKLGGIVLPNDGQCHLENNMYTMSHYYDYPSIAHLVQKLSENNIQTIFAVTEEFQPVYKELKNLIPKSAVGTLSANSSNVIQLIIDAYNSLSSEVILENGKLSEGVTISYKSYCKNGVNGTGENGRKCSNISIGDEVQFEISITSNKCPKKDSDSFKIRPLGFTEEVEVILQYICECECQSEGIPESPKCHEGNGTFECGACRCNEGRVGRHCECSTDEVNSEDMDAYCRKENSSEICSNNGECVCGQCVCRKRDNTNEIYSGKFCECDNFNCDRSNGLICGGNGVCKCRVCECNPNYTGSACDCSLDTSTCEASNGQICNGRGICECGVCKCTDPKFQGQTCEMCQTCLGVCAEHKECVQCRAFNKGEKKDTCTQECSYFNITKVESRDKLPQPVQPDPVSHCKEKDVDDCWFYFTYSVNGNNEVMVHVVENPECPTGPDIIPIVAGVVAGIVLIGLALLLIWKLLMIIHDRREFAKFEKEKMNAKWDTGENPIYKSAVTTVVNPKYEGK

SMILES: Cc1ccccc1NC(=O)Nc1ccc(CC(=O)N[C@@H](CCCCNC(=O)/C=C/c2cccnc2)C(=O)N[C@@H](CCCC(=O)O)C(=O)NC2(C(N)=O)CCCCC2)cc1 [LLP2A]
- affinity for open conformation of integrin α4β1: picomolar-affinity
